Where two headings read alike, the source gives them in different places.
Columns and labels:
[1] = Ovine plasma pharmacokinetics of PTH 1-34 (four-way randomised cross-over, ELISA); assay type: in vivo; conditions: sheep; for half-life: read-out: t1/2 (mean); for bioavailability: relative to intravenous injection, read-out: Fab
Protocol: Research was conducted in accordance with the requirements of the Animals (Scientific Procedures) Act 1986 (ASPA) under Procedural Project Licence (PPL) number 40/3552 (Protocol 19b/1), between 26 April 2016 and 24 May 2016, at the University of Nottingham, Nottingham, UK (Procedural Establishment Licence (PEL) number PCD 40/2406). The overarching protocol (as detailed in the PPL) was subject to full review by the Animal Welfare and Ethical Review Board (AWERB), and the study-specific protocol received a more localised review by the Named Animal Care and Welfare Officer (NACWO) and Named Veterinary Surgeon (NVS). This research governance is compliant with recommended ethical review processes. In view of the clinical data obtained in the present study, the pharmacokinetics of the Solutol® HS15-based formulation of PTH 1-34 were further investigated in sheep. The sheep study replicated the clinical trial in that it tested the nasal solution formulation of PTH 1-34 as well as a subcutaneous injection, but also evaluated pharmacokinetics of PTH 1-34 following intravenous injection and an intranasal PTH1-34 dry powder formulation.
The study was conducted according to a four-way randomised cross-over study in four (Mule crossbred) female sheep (obtained from a reputable commercial supplier). The sheep were group housed in a heat and ventilation air conditioned (HVAC) facility for the duration of the study, and were uniquely identified by a combination of ear tag and electronic transponder. On arrival, the animals were also randomly assigned a unique identifier by the facilities Research Animal Facility Management system (LabTracks, Locus Technology Inc., Manchester, MD, USA) and an abbreviated study number (1, 2, 3 and 4). To aid identification during the study, the fleece of each animal was marked with the abbreviated study number by spraying with a commercial stockmarker (dye). The animals were acclimatised for 17 days prior to initiation of treatments. The animals were subject to a health inspection by the NVS prior to and after use in the study, and were monitored during the study by the PPL holder and facility personnel supported by the NACWO, NVS and University of Nottingham personnel. Animals were weighed weekly during the study (Supplementary Materials: Section S3).
Administration of the PTH 1-34 was either as an intranasal liquid, intranasal dry powder, subcutaneous injection or intravenous injection. The treatments were randomised according to a Latin Square design using an online randomisation programme (Experimental Design Generator and Randomiser (Edgar) accessed from: http://www.edgarweb.org.uk/) with a minimum of a two day washout period between study legs. Immediately prior to dosing, the four sheep were sedated by an intravenous injection of ketamine hydrochloride (100 mg/mL solution administered at 2.25 mg/kg). This provided approximately 3 min sedation, during which period the sheep were dosed.
The formulations were prepared at Critical Pharmaceuticals’ Laboratories and transported, refrigerated, to the study facility. The intranasal liquid was administered via the right nostril using a LMA™ MAD110 Nasal™ Intranasal mucosal atomization device (MAD110) (Wolfe-Tory Medical, Inc., Salt Lake City, UT, USA) customised for use in sheep (to allow circumvention of the nostril and delivery of the dose to the respiratory mucosa of the nasal cavity). The intranasal powder formulation was also administered via the right nostril using a 5 mm oral/nasal tracheal tube Portex® Blueline 100/111/050, (Smiths Medical, Ashford, UK) and one-way bellows. The amount of powder administered to each animal, and thus the nominal dose of PTH 1-34, was determined by weighing the devices before and after the nasal administrations. The subcutaneous and intravenous bolus injections of PTH 1-34 were administered into the flank and a jugular vein, respectively. […]

[2] = cited from earlier work
From the text: Nasal delivery of large peptides such as parathyroid 1-34 (PTH 1-34) can benefit from a permeation enhancer to promote absorption across the nasal mucosa into the bloodstream. […] We report here the plasma pharmacokinetics of PTH 1-34 in healthy human volunteers receiving the liquid nasal spray formulation containing Solutol® HS15 ... || Our previously published preclinical data in rats for a liquid nasal spray formation were encouraging, showing that the nasal systemic absorption of PTH 1-34 was increased considerably when administered in a formulation containing Solutol® HS15. […] This was not consistent with the previous data from our small animal preclinical studies. In the preceding preclinical conscious rat model, we reported the pharmacokinetic performance of an […] PTH 1-34 subcutaneous formulation, an intranasal liquid formulation with no enhancer and an intranasal solution containing Solutol® HS15. PTH 1-34 doses of 80 μg/kg by subcutaneous injection and 100 μg/kg intranasally were given to rats. T ...

[3] = post-menopausal women with osteoporosis, 20 μg PTH 1-34 subcutaneous dose, reported by the manufacturers of the commercial formulation; cited from earlier work
[4] = female, Mule crossbred, 20 ug, four-way crossover, intravenous bolus (jugular vein), solution without Solutol HS15, 20 μg, plasma ELISA, mean ± SE, n = 4
[5] = female, Mule crossbred, inhaled or intranasal, 200 ug, four-way crossover, intranasal liquid with 7.5% w/v Solutol HS15, 200 μg, single nostril, plasma ELISA, mean ± SE, n = 4
[6] = female, Mule crossbred, inhaled or intranasal, 200 ug, four-way crossover, intranasal liquid with 7.5% w/v Solutol HS15, 200 μg, single nostril, plasma ELISA, mean ± SE, n = 4, not dose-corrected
[7] = female, Mule crossbred, inhaled or intranasal, four-way crossover, intranasal dry powder (1% PTH 1-34, 39% gellan gum, 40% Solutol HS15, 20% trehalose), nominal 200 μg (estimated 130 ± 15 μg), plasma ELISA, mean ± SE, n = 4
[8] = female, Mule crossbred, sc, 20 ug, four-way crossover, subcutaneous injection into flank, solution without Solutol HS15, 20 μg, plasma ELISA, mean ± SE, n = 3
[9] = four-way crossover, intranasal dry powder with Solutol HS15 and gellan gum, nominal 200 μg (estimated 130 ± 15 μg), plasma ELISA, n = 4
[10] = four-way crossover, intranasal liquid with 7.5% w/v Solutol HS15, 200 μg, single nostril, plasma ELISA, n = 4
[11] = four-way crossover, intravenous bolus (jugular vein), solution without Solutol HS15, 20 μg, plasma ELISA, n = 4
[12] = four-way crossover, subcutaneous injection into flank, solution without Solutol HS15, 20 μg, plasma ELISA, n = 3
[13] = conscious rat, intranasal liquid formulation without enhancer, 100 μg/kg

- AUC(0-inf) [1, 4]: 0.18 ng·h/mL
- AUC(0-t) [1, 4]: 0.178 ng·h/mL
- Tmax [1, 4]: 2 min
- half-life [1, 4]: 75 ± 18.1 min
- Cmax ([1]; female, Mule crossbred, 20 ug, four-way crossover, intravenous bolus (jugular vein), solution without Solutol HS15, 20 μg, plasma ELISA, observed, mean ± SE, n = 4): 1.14 ± 0.198 ng/mL
- Cmax [1, 5]: 0.047 ± 0.021 ng/mL
- Tmax [1, 5]: 10 min
- AUC(0-inf) [1, 6]: 0.0204 ng·h/mL
- AUC(0-t) [1, 6]: 0.0182 ng·h/mL
- half-life [1, 5]: 109 ± 43.7 min
- Cmax [1, 7]: 0.008 ± 0.003 ng/mL
- Tmax [1, 7]: 11 min
- half-life ([1]; female, Mule crossbred, inhaled or intranasal, four-way crossover, intranasal dry powder with Solutol HS15 and gellan gum, nominal 200 μg (estimated 130 ± 15 μg), plasma ELISA, mean ± SE, n = 4): 96 ± 29.8 min
- C0 ([1]; female, Mule crossbred, plasma, 20 ug, intravenous bolus 20 μg, back-extrapolated from the first two concentration values, mean ± SE, read-out: C0 (initial plasma concentration, extrapolation to t = 0)): 2.18 ± 0.696 ng/mL
- F rel ([1]; female, Mule crossbred, plasma, inhaled or intranasal, 200 ug, intranasal liquid with 7.5% w/v Solutol HS15, 200 μg, relative to subcutaneous injection, from AUCINF, dose-corrected, mean ± SE, n = 4, read-out: Frel): 1.4 ± 0.31%
- bioavailability ([1]; female, Mule crossbred, plasma, inhaled or intranasal, 200 μg, intranasal dry powder with Solutol HS15 and gellan gum, from AUCINF, corrected with estimated dose, mean ± SE, n = 4): 0.7 ± 0.03%
- F rel ([1]; female, Mule crossbred, plasma, inhaled or intranasal, 200 μg, intranasal dry powder with Solutol HS15 and gellan gum, relative to subcutaneous injection, from AUCINF, corrected with estimated dose, mean ± SE, n = 4, read-out: Frel): 1 ± 0.12%
- bioavailability ([1]; female, Mule crossbred, plasma, inhaled or intranasal, 200 ug, intranasal liquid with 7.5% w/v Solutol HS15, 200 μg, from AUCINF, dose-corrected, mean ± SE, n = 4): 1.1 ± 0.26%
- F rel ([1]; female, Mule crossbred, plasma, iv, 20 ug, intravenous bolus 20 μg, relative to subcutaneous injection, calculated for n = 3, read-out: Frel, n = 3): 140%
- F rel ([1]; female, Mule crossbred, plasma, iv, 20 ug, intravenous bolus 20 μg, relative to subcutaneous injection, from AUCINF, mean ± SE, n = 4 (average subcutaneous AUCINF used for Sheep 1), read-out: Frel): 156 ± 24%
- bioavailability ([1]; female, Mule crossbred, plasma, sc, 20 ug, subcutaneous injection into flank, 20 μg, from AUCINF, mean ± SE, n = 3): 77 ± 13.7%
- AUC(0-inf) [1, 8]: 0.124 ng·h/mL
- AUC(0-t) [1, 8]: 0.12 ng·h/mL
- Cmax [1, 8]: 0.121 ± 0.047 ng/mL
- Tmax [1, 8]: 12 min
- half-life [1, 8]: 54 ± 8.7 min
- Tmax (median) [1, 9]: 8 min
- t1/2 (median) [1, 9]: 71 min
- Tmax (median) [1, 10]: 10 min
- t1/2 (median) [1, 10]: 77 min
- Tmax (mean) ([1]; four-way crossover, intravenous bolus (jugular vein), solution without Solutol HS15, 20 μg, plasma ELISA, mean ± SE, n = 4): 2 min
- Tmax (median) [1, 11]: 2 min
- t1/2 (median) [1, 11]: 78 min
- Tmax (median) [1, 12]: 10 min
- t1/2 (median) [1, 12]: 47 min
- Frel ([1]; intranasal liquid with 7.5% w/v Solutol HS15, 200 μg, relative to subcutaneous injection, from AUCINF, dose-corrected, mean ± SE, n = 4): 1.4 ± 0.3%
- time by which concentrations had returned to near baseline values ([1]; intranasal liquid with Solutol HS15, 200 μg, post-dose): ≤ 30 min
- time of return to near baseline ([1]; intravenous bolus 20 μg): 30 to 45 min
- Fab range ([1]; subcutaneous injection 20 μg, relative to intravenous, range): 55–108%
SMILES: CC[C@H](C)[C@H](NC(=O)[C@H](CCC(=O)O)NC(=O)[C@H](CO)NC(=O)[C@@H](NC(=O)[C@@H](N)CO)C(C)C)C(=O)N[C@@H](CCC(N)=O)C(=O)N[C@@H](CC(C)C)C(=O)N[C@@H](CCSC)C(=O)N[C@@H](Cc1cnc[nH]1)C(=O)N[C@@H](CC(N)=O)C(=O)N[C@@H](CC(C)C)C(=O)NCC(=O)N[C@@H](CCCCN)C(=O)N[C@@H](Cc1cnc[nH]1)C(=O)N[C@@H](CC(C)C)C(=O)N[C@@H](CC(N)=O)C(=O)N[C@@H](CO)C(=O)N[C@@H](CCSC)C(=O)N[C@@H](CCC(=O)O)C(=O)N[C@@H](CCCN=C(N)N)C(=O)N[C@H](C(=O)N[C@@H](CCC(=O)O)C(=O)N[C@@H](Cc1c[nH]c2ccccc12)C(=O)N[C@@H](CC(C)C)C(=O)N[C@@H](CCCN=C(N)N)C(=O)N[C@@H](CCCCN)C(=O)N[C@@H](CCCCN)C(=O)N[C@@H](CC(C)C)C(=O)N[C@@H](CCC(N)=O)C(=O)N[C@@H](CC(=O)O)C(=O)N[C@H](C(=O)N[C@@H](Cc1cnc[nH]1)C(=O)N[C@@H](CC(N)=O)C(=O)N[C@@H](Cc1ccccc1)C(=O)O)C(C)C)C(C)C [PTH 1-34, PTH 1-34 acetate]
- relative bioavailability ([2]; conscious rat, intranasal liquid formulation without enhancer (100 μg/kg) relative to subcutaneous injection (80 μg/kg)): 8%
- Cmax [2, 13]: 2 ng/mL
- Tmax [2, 13]: 13 min
- Tmax ([2]; conscious rat, intranasal solution containing Solutol HS15, 100 μg/kg): ~10 min
- relative bioavailability ([2]; rat, intranasal liquid formulation containing Solutol HS15 (100 μg/kg) relative to subcutaneous injection (80 μg/kg)): 78%
- Cmax ([2]; rat, subcutaneous injection, 80 μg/kg PTH 1-34, mean): 14.8 ng/mL
- Cmax [3]: ~150 pg/mL
- elimination half-life [3]: approximately 1 h
